{
  "source": "patent US9226919B2",
  "about": "“Methods for dosing an orally active 1,2,4-oxadiazole” (PTC Therapeutics, Inc., priority 2006, dated 2016)",
  "key": {"[1]": {"test": "Body weight, Phase 2 cystic fibrosis study", "assay_type": "in vivo, human", "from_the_text": "(§1) 3-[5-(2-Fluoro-phenyl)-[1,2,4]oxadiazol-3-yl]-benzoic acid was provided in a formulation described herein.\n(§2) Statistically significant results and positive trends for secondary endpoints were also observed. In particular, although the trials were not been powered to detect statistical significant changes in secondary endpoints, statistically significant improvements from study entry to the end of the higher-dose treatment cycle in the patients' mean FEV1, FVC and weight were observed."}, "[2]": {"tested_on": "patients with nonsense-mutation-mediated cystic fibrosis", "test": "Investigator-asked changes in cystic fibrosis symptoms, Phase 2 studies", "assay_type": "in vivo, human", "from_the_text": "In addition, although changes in patient's symptoms were not formally measured through the use of a quality-of-life questionnaire, trial investigators were requested to ask about changes in patients' cystic fibrosis symptoms. In the 15 patients included in the interim analysis, 6 reported general improvements in well being, 6 reported decrease in cough and 10 reported decreased mucus thickness and easier clearing of mucus.\nThe device was used to obtain the data set forth in FIG. 2 and will be used to offer substantial supplementary data regarding the clinical benefits of 3-[5-(2-fluoro-phenyl)-[1,2,4]oxadiazol-3-yl]-benzoic acid during Phase 3 testing in CF. Existing informally collected symptom data from the Phase 2 studies of 3-[5-(2-fluoro-phenyl)-[1,2,4]oxadiazol-3-yl]-benzoic acid support this concept. […] Without being limited by theory, based on the hypothesis that 3-[5-(2-fluoro-phenyl)-[1,2,4]oxadiazol-3-yl]-benzoic acid-mediated induction of CFTR function would reduce airway obstruction and inflammation, a decrease in cough frequency could serve as a symptomatic integration of these pharmacological effects and might offer a more accurate and quantitative assessment than verbal patient reporting."}, "[3]": {"tested_on": "patients with nonsense-mutation-mediated cystic fibrosis", "test": "Pulmonary function tests (FEV1, FVC), Phase 2 cystic fibrosis study", "assay_type": "in vivo, human", "description": "Pulmonary function tests, including FEV1, FVC, and MEF25-75, are measured using standard spirometry procedures. Assessments of pulmonary function (including MEF25-75, FVC, and, particularly, FEV1) have been acknowledged as definitive clinical endpoints in patients with CF (Food and Drug Administration, 62nd Anti-Infective Drugs Advisory Committee. Discussion of NDA for tobramycin solution for inhalation (Tobi®) for the management of cystic fibrosis patients. November, 1997; Tiddens, 2002, Pediatr. Pulmonol. 34(3): 228-31). […] Pulmonary function testing is simple to administer (even in patients as young as 7 years of age), and uses standardized equipment and techniques that are widely available. Interpretation is performed using well-established normative equations that account for patient age, height, and gender.\nas §1\nClinical endpoints were evaluated using the procedures set forth above. TEPD measurements were made prior to treatment and on days 14 and 28 of Cycle 1 and Cycle 2. Nasal mucosal curettage was collected from each nostril of each patient prior to treatment and on days 14 and 28 of Cycle 1 and Cycle 2. Pulmonary tests, including FEV1, FVC and MEF25-75, were measured prior to treatment, on day −1 of Cycle 2, on day 13 or 14 of Cycle 1 and day 13 or 14 of Cycle 2 in the study being conducted in Israel and the same parameters were measured prior to treatment and on day 13 or 14 of Cycle 2 in the study being conducted in the United States.\nas §2"}, "serum CK": {"tested_on": "serum CK", "test": "Serum CK levels, Phase 2 DMD study", "assay_type": "in vivo, human", "details": "majority of subjects at 4-, 8-, 10-, 20-, 40-mg/kg dose levels (p=0.03, 0.002, 0.001)", "description": "Serum CK activity is assessed using a commercially available NADH-linked kinetic assay (Diagnostic Chemicals Ltd., Oxford, Conn.). Serum CK levels are measured prior to treatment, on day 1 (prior to first dose), day 7, day 14, day 21, and day 27 during the treatment period, and on day 42 and day 56 after treatment. Serum CK is increased in Duchenne muscular dystrophy and therefore is a readily measurable diagnostic marker for the disease and may serve as a potential biomarker for the pharmacological activity of the drug (Mendell et al., 1989, New Eng. J. Med. 320(24):1592-1597).\nPre-treatment of primary muscle cells from 24 of the 26 boys in the first 2 cohorts were available for in vitro myotube culture. […] These changes were statistically significant (p=0.03, p=0.002, p=0.001 for low-, middle- and high doses, respectively). The return of mean values toward baseline upon cessation of treatment provided additional support for pharmacological activity."}, "dystrophin": {"tested_on": "dystrophin", "test": "In vitro myotube culture of patients' primary muscle cells, dystrophin expression", "assay_type": "cell-based, human", "description": "Studies are performed on muscle tissue and skin from patients to determine whether dystrophin production in primary muscle cultures from the patients corresponds with dystrophin production in vivo. […] Correlations of skin cell response with clinical activity may offer an easy-to-obtain predictive test in selecting future patients for therapy or for screening new agents for the treatment of DMD. Cells are cultured as follows. Biopsy material is stored during transport in human proliferation medium (or PBS), and on ice for longer time periods if necessary. If the tissue is not prepared within 24 hours, the material can be frozen in human proliferation medium containing 10% DMSO and stored in liquid nitrogen (or dry ice). At the time the tissue is to be prepared for setting up the myoblast culture, biopsy material is washed in PBS. PBS sufficient to keep the tissue moist is added into a culture dish. The biopsy material is minced thoroughly with razor blades, toward an almost homogeneous suspension. Approximately 2 ml of collegenase/dispase/CaCl2 solution per gram of tissue is added and mincing is continued for several minutes (e.g. for a muscle biopsy of 5×5×5 mm use 1 ml of enzyme solution). […] The myogenic cell content of the culture is determined by performing a desmin-staining. […]"}, "[4]": {"details": "study entry to end of higher dose treatment"}, "[5]": {"details": "of 15 CF patients in interim analysis"}},
  "data": [
    {"smiles": "O=C(O)c1cccc(-c2noc(-c3ccccc3F)n2)c1", "note": "[3-[5-(2-fluoro-phenyl)-[1,2,4]oxadiazol-3-yl]-benzoic acid]", "values": [
      {"measurement": "Weight, End of Higher Dose Treatment", "setting": "[1]; end of higher-dose cycle (10, 10, 20 mg/kg TID), study entry 58.3 kg", "result": 59.0, "unit": "kg"},
      {"measurement": "Weight, Change", "setting": "[1]; [4]", "result": 0.7, "unit": "kg"},
      {"measurement": "Patients reporting decrease in cough", "setting": "[2]; [5]", "result": 6},
      {"measurement": "Patients reporting decreased mucus thickness and easier clearing of mucus", "setting": "[2]; [5]", "result": 10},
      {"measurement": "Patients reporting general improvements in well being", "setting": "[2]; [5]", "result": 6},
      {"measurement": "Patient-described on-study coughing", "setting": "[2]; several patients, informally collected symptom data, Phase 2 studies", "result": "decreases in coughing"},
      {"measurement": "Mean FEV1 (percentage of normal for gender, age and height), End of Higher Dose Treatment", "setting": "[3]; end of higher-dose cycle (10, 10, 20 mg/kg TID), study entry 65.8%", "result": 69.1, "unit": "%"},
      {"measurement": "Mean FVC (percentage of normal for gender, age and height), End of Higher Dose Treatment", "setting": "[3]; end of higher-dose cycle (10, 10, 20 mg/kg TID), study entry 80.2%", "result": 85.1, "unit": "%"},
      {"measurement": "Mean FEV1 (percentage of normal), Change", "setting": "[3]; [4]", "result": 3.3, "unit": "%"},
      {"measurement": "Mean FVC (percentage of normal), Change", "setting": "[3]; [4]", "result": 4.9, "unit": "%"},
      {"measurement": "Serum CK, end-of-treatment versus pretreatment values", "setting": "serum CK", "result": "decreases in CK"},
      {"measurement": "Dystrophin expression in myotube cultures", "setting": "dystrophin; cultured in the presence of the compound", "result": "dose-dependent increase in dystrophin expression"},
      {"measurement": "In Vitro Expression Response (dystrophin)", "setting": "dystrophin; myotube culture of pre-treatment primary muscle cells of individual DMD patients", "result": "Yes"}
    ]}
  ]
}
